In patent publication US10689362B2, “Quinoxaline compounds as type III receptor tyrosine kinase inhibitors” (Development Center for Biotechnology, priority 2016, dated 2020):
pIC50: −log10 of the molar value.

How the values were obtained:
[1] = target: CSF-1R kinase (Homo sapiens (Human), UniProt P07333); assay: CSF-1R kinase assay (AlphaScreen); type: biochemical; conditions: class symbol
Method: Inhibition of CSF-1R kinase activity by a test compound disclosed herein was estimated by AlphaScreen (PerkinElmer). […] Reactions were incubated at 30° C. for 45 min and stopped by adding 5 μL of 50 mM EDTA. Analysis of resulting product using an AlphaScreen kit, and counted with Enspire Alpha (PerkinElmer). […] The IC50 values of quinoxaline compounds of this invention against CSF-1R kinase were determined using the GraphPad Prism 5 software.

[2] = target: c-KIT kinase (Homo sapiens (Human), UniProt P10721); assay: c-KIT kinase assay (radiometric); type: biochemical; conditions: class symbol
Chain of c-KIT kinase (P10721 26-976): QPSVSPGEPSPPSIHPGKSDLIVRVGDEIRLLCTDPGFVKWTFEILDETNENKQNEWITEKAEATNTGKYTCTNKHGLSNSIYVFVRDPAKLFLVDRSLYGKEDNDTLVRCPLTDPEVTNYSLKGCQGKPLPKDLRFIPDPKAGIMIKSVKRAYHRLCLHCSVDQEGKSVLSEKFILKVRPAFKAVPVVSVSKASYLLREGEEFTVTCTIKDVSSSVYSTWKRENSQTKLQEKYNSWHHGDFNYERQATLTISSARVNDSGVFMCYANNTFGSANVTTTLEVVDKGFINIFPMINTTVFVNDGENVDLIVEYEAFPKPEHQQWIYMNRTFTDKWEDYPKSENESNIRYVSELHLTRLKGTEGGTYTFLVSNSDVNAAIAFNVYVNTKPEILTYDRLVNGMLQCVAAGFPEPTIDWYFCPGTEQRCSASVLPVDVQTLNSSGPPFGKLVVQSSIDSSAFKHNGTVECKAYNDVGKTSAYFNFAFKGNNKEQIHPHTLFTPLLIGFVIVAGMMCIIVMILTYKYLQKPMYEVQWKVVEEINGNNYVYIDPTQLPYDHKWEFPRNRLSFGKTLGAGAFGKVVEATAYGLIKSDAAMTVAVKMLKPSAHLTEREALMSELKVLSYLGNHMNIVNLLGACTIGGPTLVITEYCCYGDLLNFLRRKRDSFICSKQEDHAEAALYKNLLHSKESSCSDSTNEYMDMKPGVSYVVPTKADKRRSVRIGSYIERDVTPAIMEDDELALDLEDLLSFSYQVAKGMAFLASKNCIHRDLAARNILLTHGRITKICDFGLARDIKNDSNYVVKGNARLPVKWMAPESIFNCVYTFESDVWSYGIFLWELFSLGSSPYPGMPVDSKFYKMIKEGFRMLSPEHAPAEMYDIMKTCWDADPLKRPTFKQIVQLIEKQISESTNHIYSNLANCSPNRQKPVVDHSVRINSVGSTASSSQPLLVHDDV
Outline: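 Recombinant c-Kit (20 ng) with 2 μg Poly-(Glu4:Tyr1) in MOPS pH 7.0 buffer with MgCl2/MnCl2, 10 μM ATP plus [^33P]-ATP, 4% DMSO final, 60 min at 30° C. Stopped with phosphoric acid, filter-captured and scintillation counted; IC50 from curve fit.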

[3] = target: FLT3 kinase (Homo sapiens (Human), UniProt P36888); assay: FLT3 kinase assay (radiometric); type: biochemical; conditions: bound
Chain of FLT3 kinase (P36888 27-993): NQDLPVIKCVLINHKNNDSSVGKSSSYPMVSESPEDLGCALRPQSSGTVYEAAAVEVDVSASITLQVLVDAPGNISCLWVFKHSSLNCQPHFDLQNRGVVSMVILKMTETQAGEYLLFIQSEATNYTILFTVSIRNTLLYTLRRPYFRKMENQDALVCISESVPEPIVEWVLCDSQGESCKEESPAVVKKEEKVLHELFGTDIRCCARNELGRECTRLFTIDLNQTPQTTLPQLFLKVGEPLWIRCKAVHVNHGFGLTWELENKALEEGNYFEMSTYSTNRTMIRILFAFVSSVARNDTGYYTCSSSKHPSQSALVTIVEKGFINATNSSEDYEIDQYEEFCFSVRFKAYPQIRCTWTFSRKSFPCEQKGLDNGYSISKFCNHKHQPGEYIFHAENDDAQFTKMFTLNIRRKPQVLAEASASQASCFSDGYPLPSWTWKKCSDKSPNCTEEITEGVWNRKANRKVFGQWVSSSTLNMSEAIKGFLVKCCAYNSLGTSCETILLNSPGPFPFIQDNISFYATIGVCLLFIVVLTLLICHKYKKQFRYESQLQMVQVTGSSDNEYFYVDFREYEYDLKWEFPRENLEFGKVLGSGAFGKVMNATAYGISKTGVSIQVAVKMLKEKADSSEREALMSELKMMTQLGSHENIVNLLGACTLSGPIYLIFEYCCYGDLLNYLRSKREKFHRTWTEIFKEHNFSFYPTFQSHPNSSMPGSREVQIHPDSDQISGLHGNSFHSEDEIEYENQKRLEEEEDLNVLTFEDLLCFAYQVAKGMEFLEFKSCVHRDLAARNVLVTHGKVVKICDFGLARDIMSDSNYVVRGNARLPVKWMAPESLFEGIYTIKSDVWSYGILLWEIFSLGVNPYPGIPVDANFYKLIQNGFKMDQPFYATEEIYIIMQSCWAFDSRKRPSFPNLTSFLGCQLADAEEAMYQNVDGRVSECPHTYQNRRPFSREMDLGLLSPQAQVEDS
Outline: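 Recombinant FLT3 (5 ng) phosphorylating poly(Glu4:Tyr1) (2 μg) with 10 μM ATP plus [^33P]-ATP in MOPS pH 7.0 buffer, 4% DMSO final, 60 min at 30° C. Reaction stopped with phosphoric acid, filter-captured and scintillation-counted; IC50 derived from dose-response.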

[4] = target: PDGFRβ kinase (Homo sapiens (Human), UniProt P09619); assay: PDGFRβ kinase assay (radiometric); type: biochemical; conditions: bound
Chain of PDGFRβ kinase (P09619 33-1106): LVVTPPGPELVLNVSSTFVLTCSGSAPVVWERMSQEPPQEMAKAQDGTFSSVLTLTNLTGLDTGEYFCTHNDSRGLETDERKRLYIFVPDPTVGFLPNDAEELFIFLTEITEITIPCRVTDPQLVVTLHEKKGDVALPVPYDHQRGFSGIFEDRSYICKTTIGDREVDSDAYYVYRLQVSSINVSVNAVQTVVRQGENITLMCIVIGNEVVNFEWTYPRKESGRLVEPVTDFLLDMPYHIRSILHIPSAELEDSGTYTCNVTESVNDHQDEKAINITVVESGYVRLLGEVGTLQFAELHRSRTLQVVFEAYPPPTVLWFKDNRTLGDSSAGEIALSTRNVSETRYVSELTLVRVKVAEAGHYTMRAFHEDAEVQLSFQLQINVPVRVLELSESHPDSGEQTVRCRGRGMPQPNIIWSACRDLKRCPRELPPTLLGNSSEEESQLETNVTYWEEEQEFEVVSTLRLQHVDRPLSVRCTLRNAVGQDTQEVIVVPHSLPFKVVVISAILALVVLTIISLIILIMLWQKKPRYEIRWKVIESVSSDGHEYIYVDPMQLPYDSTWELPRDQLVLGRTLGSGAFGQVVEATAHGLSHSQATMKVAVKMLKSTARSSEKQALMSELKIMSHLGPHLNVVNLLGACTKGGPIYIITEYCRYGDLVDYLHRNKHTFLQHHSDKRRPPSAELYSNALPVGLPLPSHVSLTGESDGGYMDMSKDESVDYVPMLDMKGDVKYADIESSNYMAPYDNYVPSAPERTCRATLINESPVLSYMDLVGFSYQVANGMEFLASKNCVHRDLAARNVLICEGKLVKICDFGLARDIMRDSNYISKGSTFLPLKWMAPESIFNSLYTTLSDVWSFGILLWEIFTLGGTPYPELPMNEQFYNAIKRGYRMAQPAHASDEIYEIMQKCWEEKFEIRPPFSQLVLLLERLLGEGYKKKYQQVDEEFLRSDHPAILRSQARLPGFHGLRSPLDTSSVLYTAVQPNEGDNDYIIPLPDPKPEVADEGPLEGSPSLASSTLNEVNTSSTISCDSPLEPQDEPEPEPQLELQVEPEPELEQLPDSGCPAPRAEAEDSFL
Outline: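 Radiometric assay: recombinant PDGFRβ with poly(Glu4:Tyr1) in MOPS pH 7.0 buffer containing Mg2+/Mn2+, 10 μM ATP plus [33P]-ATP, and compound at 4% DMSO final. Incubated 60 min at 30° C, stopped with phosphoric acid, filter-captured and scintillation-counted. IC50 from curve fitting.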

[5] = system: CSF-1-dependent M-NFS-60 mouse myeloid leukemia cell; assay: M-NFS-60 cell proliferation assay (CellTiter-96); type: cell-based; conditions: Cytotoxicity, M-NFS-60 cells, 72 hours
Outline: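 Growth inhibition was measured as absorbance at 490 nm after 4 h with CellTiter 96 AQueous One reagent. Beforehand, M-NFS-60 cells (2000/well, CSF-1-dependent) were treated with a compound dilution series for 72 h following overnight plating at 37 °C, 5% CO2.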

[6] = system: MV4-11 human acute myeloid leukemia cell with FLT3-ITD mutation; assay: MV4-11 cell proliferation assay (CellTiter-96); type: cell-based; conditions: Cytotoxicity, MV4-11 cells, 72 hours
Outline: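 Growth inhibition read as absorbance at 490 nm after 4 hours with CellTiter96 AQueous One reagent. Before that, FLT3-ITD-dependent MV4-11 cells (6500 cells/well, overnight at 37° C., 5% CO2) received a rising compound concentration series for 72 hours.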

[7] = system: Kasumi-1 human acute myeloid leukemia cell with c-KIT N822K activating mutation; assay: Kasumi-1 cell proliferation assay (CellTiter-96); type: cell-based; conditions: Cytotoxicity, Kasumi-1 cells, 72 hours
Outline: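 After 72 h of treatment with a compound dilution series, growth of c-KIT N822K-driven Kasumi-1 cells (64000 per well, plated the day before) was read as 490 nm absorbance. This followed a 4 h incubation with CellTiter96 AQueous One reagent.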

[8] = system: THP-1 human acute monocytic leukemia cell harboring NRAS G12D mutation; assay: THP-1 cell proliferation assay (counter screen, CellTiter-96); type: cell-based; conditions: Cytotoxicity, THP-1 cells (counter screen), 72 hours
Outline: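 Growth inhibition read as 490 nm absorbance after 4 h with CellTiter96 AQueous One reagent, following 72 h compound exposure at rising concentrations. THP-1 (NRAS G12D) cells plated at 5000 per well and left overnight at 37 °C, 5% CO2 before dosing.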

[9] = system: osteoclast precursors (osteoclast differentiation); assay: Osteoclast tartrate-resistant acid phosphatase assay; type: cell-based; conditions: 168 h, at 1 μM treatment, 7 days, RANKL and M-CSF, read-out: inhibition activity against osteoclast differentiation
Method: A serial dilution of test compound was dispensed into a 96-well black clear bottom plate. Compound was diluted by the addition of DMEM media supplemented with 10% characterized fetal bovine serum. Diluted compound was transferred to a 96-well black clear bottom plate. Three thousand osteoclast precursors (Lonza, Walkersville, Md.) were added per well in growth medium containing Receptor Activator of Nuclear Factor Kappa-beta ligand (RANKL) and M-CSF. […] At the end of the incubation period, 50 μL of supernatant from each well was transferred to a clear 96-well plate. Tartrate-resistant acid phosphatase activity in the supernatant samples was determined using an acid phosphatase assay kit (Sigma, St. Louis, Mo.). Absorbance was measured at 550 nm using a plate reader. […] The Inhibition activity against osteoclast differentiation for each compound at 1 μM treatment in duplicate was measured.

Chain of CSF-1R kinase (P07333 20-972): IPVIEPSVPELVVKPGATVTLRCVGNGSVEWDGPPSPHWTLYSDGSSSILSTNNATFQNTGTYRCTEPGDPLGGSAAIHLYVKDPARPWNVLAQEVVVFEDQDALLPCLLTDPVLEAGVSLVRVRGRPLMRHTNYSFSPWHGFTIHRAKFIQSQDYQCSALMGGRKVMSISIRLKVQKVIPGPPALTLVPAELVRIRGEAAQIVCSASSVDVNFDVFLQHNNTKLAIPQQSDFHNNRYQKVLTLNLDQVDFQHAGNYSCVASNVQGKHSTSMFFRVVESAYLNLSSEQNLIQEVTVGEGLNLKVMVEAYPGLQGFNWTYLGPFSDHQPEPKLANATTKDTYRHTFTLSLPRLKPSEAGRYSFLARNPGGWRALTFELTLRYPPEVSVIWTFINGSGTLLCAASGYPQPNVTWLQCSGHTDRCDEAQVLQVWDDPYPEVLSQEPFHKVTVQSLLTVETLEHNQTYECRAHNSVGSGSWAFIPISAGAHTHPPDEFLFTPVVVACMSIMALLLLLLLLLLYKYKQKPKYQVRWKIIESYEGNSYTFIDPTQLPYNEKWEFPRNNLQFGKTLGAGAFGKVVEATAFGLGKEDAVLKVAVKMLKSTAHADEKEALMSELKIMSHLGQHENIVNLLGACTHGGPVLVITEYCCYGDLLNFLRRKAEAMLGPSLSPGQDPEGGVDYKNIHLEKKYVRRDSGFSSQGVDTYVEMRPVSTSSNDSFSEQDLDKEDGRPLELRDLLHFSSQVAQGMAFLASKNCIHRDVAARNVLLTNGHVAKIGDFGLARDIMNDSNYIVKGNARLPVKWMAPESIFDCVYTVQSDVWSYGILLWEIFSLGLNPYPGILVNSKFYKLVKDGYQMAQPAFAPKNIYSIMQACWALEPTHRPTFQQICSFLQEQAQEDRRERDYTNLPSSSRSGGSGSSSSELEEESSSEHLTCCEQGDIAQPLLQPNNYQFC

Compound: COc1ccc(COc2ccc(Nc3ccc4ncc(N(C)C)nc4c3C#N)cc2OC)cc1 [Example 7, 3-(dimethylamino)-6-((3-methoxy-4-((4-methoxybenzyl)oxy)phenyl)amino)quinoxaline-5-carbonitrile]
- pIC50 [1]: > 7.00
- pIC50 [2]: > 7.00
- pIC50 [3]: < 6.00
- pIC50 [4]: < 6.00
- pIC50 [5]: > 6.52
- pIC50 [6]: < 5.00
- pIC50 [7]: > 6.52
- pIC50 [8]: < 5.00
- inhibition at 1 µM [9]: > 50%

Compound: COc1cc(Nc2ccc3ncc(N4CCOCC4)nc3c2C#N)ccc1OCc1cccs1 [Example 127, 6-((3-methoxy-4-(thiophen-2-ylmethoxy)phenyl)amino)-3-morpholinoquinoxaline-5-carbonitrile]
- pIC50 [1]: > 7.00
- pIC50 [2]: > 7.00
- pIC50 [3]: < 6.00
- pIC50 [4]: < 6.00
- pIC50 [5]: 5.00 to 6.00
- pIC50 [6]: 5.00 to 6.00
- pIC50 [7]: 6.00 to 6.52
- pIC50 [8]: < 5.00
- inhibition at 1 µM [9]: > 50%

Compound: CCCc1ccc(COc2ccc(Nc3ccc4ncc(N5CCOCC5)nc4c3C#N)cc2OC)cn1 [Example 98, 6-((3-methoxy-4-((6-propylpyridin-3-yl)methoxy)phenyl)amino)-3-morpholinoquinoxaline-5-carbonitrile]
- pIC50 [1]: > 7.00
- pIC50 [2]: > 7.00
- pIC50 [3]: < 6.00
- pIC50 [4]: < 6.00
- pIC50 [5]: > 6.52
- pIC50 [6]: 5.00 to 6.00
- pIC50 [7]: > 6.52
- pIC50 [8]: < 5.00
- inhibition at 1 µM [9]: > 50%

Compound: COc1cc(Nc2ccc3ncc(N4CCC(N(C)C)CC4)nc3c2C#N)ccc1OCc1cccc(C#N)c1 [Example 84, 6-((4-((3-cyanobenzyl)oxy)-3-methoxyphenyl)amino)-3-(4-(dimethylamino)piperidin-1-yl)quinoxaline-5-carbonitrile]
- pIC50 [1]: > 7.00
- pIC50 [2]: > 7.00
- pIC50 [3]: < 6.00
- pIC50 [4]: < 6.00
- pIC50 [5]: > 6.52
- pIC50 [6]: 5.00 to 6.00
- pIC50 [7]: 6.00 to 6.52
- pIC50 [8]: 5.00 to 6.00
- inhibition at 1 µM [9]: > 50%

Compound: COc1ccc(COc2ccc(Nc3ccc4ncc(N5CCN(C6CC6)CC5)nc4c3C#N)cc2OC)cn1 [Example 118, 3-(4-cyclopropylpiperazin-1-yl)-6-((3-methoxy-4-((6-methoxypyridin-3-yl)methoxy)phenyl)amino)quinoxaline-5-carbonitrile]
- pIC50 [1]: > 7.00
- pIC50 [2]: 6.52 to 7.00
- pIC50 [3]: < 6.00
- pIC50 [4]: < 6.00
- pIC50 [5]: > 6.52
- pIC50 [6]: < 5.00
- pIC50 [7]: 5.00 to 6.00
- pIC50 [8]: < 5.00
- inhibition at 1 µM [9]: > 50%

Compound: COc1cc(Nc2ccc3ncc(N4CC(N(C)C)C4)nc3c2C#N)ccc1OCc1ccc(C)nc1 [Example 136, 3-(3-(dimethylamino)azetidin-1-yl)-6-((3-methoxy-4-((6-methylpyridin-3-yl)methoxy)phenyl)amino)quinoxaline-5-carbonitrile]
- pIC50 [1]: > 7.00
- pIC50 [2]: > 7.00
- pIC50 [3]: < 6.00
- pIC50 [4]: < 6.00
- pIC50 [5]: 6.00 to 6.52
- pIC50 [6]: 5.00 to 6.00
- pIC50 [7]: 5.00 to 6.00
- pIC50 [8]: < 5.00
- inhibition at 1 µM [9]: > 50%

Compound: COc1cc(Nc2ccc3ncc(N4CCOCC4)nc3c2C#N)ccc1OCc1ccc(CF)nc1 [Example 110, 6-((4-((6-(fluoromethyl)pyridin-3-yl)methoxy)-3-methoxyphenyl)amino)-3-morpholinoquinoxaline-5-carbonitrile]
- pIC50 [1]: > 7.00
- pIC50 [2]: 6.52 to 7.00
- pIC50 [3]: < 6.00
- pIC50 [4]: < 6.00
- pIC50 [5]: > 6.52
- pIC50 [6]: 5.00 to 6.00
- pIC50 [7]: 5.00 to 6.00
- pIC50 [8]: < 5.00
- inhibition at 1 µM [9]: > 50%

Compound: COc1cc(Nc2ccc3ncc(N4CCOCC4)nc3c2C#N)ccc1OCc1ccc(C(F)(F)F)nc1 [Example 73, 6-((3-methoxy-4-((6-(trifluoromethyl)pyridin-3-yl)methoxy)phenyl)amino)-3-morpholinoquinoxaline-5-carbonitrile]
- pIC50 [1]: > 7.00
- pIC50 [2]: > 7.00
- pIC50 [3]: < 6.00
- pIC50 [4]: < 6.00
- pIC50 [5]: > 6.52
- pIC50 [6]: < 5.00
- pIC50 [7]: > 6.52
- pIC50 [8]: < 5.00
- inhibition at 1 µM [9]: > 50%

Compound: COc1ccc(COc2ccc(Nc3ccc4ncc(N5CCOCC5)nc4c3C#N)cc2OC)c(F)c1 [Example 94, 6-((4-((2-fluoro-4-methoxybenzyl)oxy)-3-methoxyphenyl)amino)-3-morpholinoquinoxaline-5-carbonitrile]
- pIC50 [1]: > 7.00
- pIC50 [2]: > 7.00
- pIC50 [3]: < 6.00
- pIC50 [4]: < 6.00
- pIC50 [5]: > 6.52
- pIC50 [6]: < 5.00
- pIC50 [7]: 6.00 to 6.52
- pIC50 [8]: < 5.00
- inhibition at 1 µM [9]: > 50%

Compound: COc1cc(Nc2ccc3ncc(N4CCC4)nc3c2C#N)ccc1OCc1cccc(C#N)c1 [Example 87, 3-(azetidin-1-yl)-6-((4-((3-cyanobenzyl)oxy)-3-methoxyphenyl)amino)quinoxaline-5-carbonitrile]
- pIC50 [1]: > 7.00
- pIC50 [2]: 6.52 to 7.00
- pIC50 [3]: < 6.00
- pIC50 [4]: < 6.00
- pIC50 [5]: 6.00 to 6.52
- pIC50 [6]: < 5.00
- pIC50 [7]: 5.00 to 6.00
- pIC50 [8]: < 5.00
- inhibition at 1 µM [9]: > 50%

Compound: COc1cc(Nc2ccc3ncc(N4CCOCC4)nc3c2C(N)=O)ccc1OCc1ccc(C)nc1 [Example 135, 6-((3-methoxy-4-((6-methylpyridin-3-yl)methoxy)phenyl)amino)-3-morpholinoquinoxaline-5-carboxamide]
- pIC50 [1]: > 7.00
- pIC50 [2]: > 7.00
- pIC50 [3]: < 6.00
- pIC50 [4]: < 6.00
- pIC50 [5]: > 6.52
- pIC50 [6]: 5.00 to 6.00
- pIC50 [7]: > 6.52
- pIC50 [8]: < 5.00
- inhibition at 1 µM [9]: > 50%

Compound: COCc1ccc(COc2ccc(Nc3ccc4ncc(N5CCOCC5)nc4c3C#N)cc2OC)nc1 [Example 125, 6-((3-methoxy-4-((5-(methoxymethyl)pyridin-2-yl)methoxy)phenyl)amino)-3-morpholinoquinoxaline-5-carbonitrile]
- pIC50 [1]: > 7.00
- pIC50 [2]: > 7.00
- pIC50 [3]: < 6.00
- pIC50 [4]: < 6.00
- pIC50 [5]: 5.00 to 6.00
- pIC50 [6]: < 5.00
- pIC50 [7]: > 6.52
- pIC50 [8]: < 5.00
- inhibition at 1 µM [9]: > 50%

Compound: CNc1cnc2ccc(Nc3ccc(OCc4ccc(OC)cc4)c(OC)c3)cc2n1 [Example 25, N^7-(3-methoxy-4-((4-methoxybenzyl)oxy)phenyl)-N^2-methylquinoxaline-2,7-diamine]
- pIC50 [1]: > 7.00
- pIC50 [2]: > 7.00
- pIC50 [3]: < 6.00
- pIC50 [4]: < 6.00
- pIC50 [5]: > 6.52
- pIC50 [6]: 5.00 to 6.00
- pIC50 [7]: 6.00 to 6.52
- pIC50 [8]: 5.00 to 6.00
- inhibition at 1 µM [9]: > 50%

Compound: COc1cc(Nc2ccc3ncc(N4CCOCC4)nc3c2C#N)cnc1OCc1ccc(C)nc1 [Example 143, 6-((5-methoxy-6-((6-methylpyridin-3-yl)methoxy)pyridin-3-yl)amino)-3-morpholinoquinoxaline-5-carbonitrile]
- pIC50 [1]: > 7.00
- pIC50 [2]: 6.00 to 6.52
- pIC50 [3]: < 6.00
- pIC50 [4]: < 6.00
- pIC50 [5]: > 6.52
- pIC50 [6]: 5.00 to 6.00
- pIC50 [7]: < 5.00
- pIC50 [8]: < 5.00
- inhibition at 1 µM [9]: > 50%
